# Target: T1, Interleukin-1 receptor-associated kinase 4 (Homo sapiens, UniProt Q9NWZ3)
# T1 sequence (Q9NWZ3 whole entry): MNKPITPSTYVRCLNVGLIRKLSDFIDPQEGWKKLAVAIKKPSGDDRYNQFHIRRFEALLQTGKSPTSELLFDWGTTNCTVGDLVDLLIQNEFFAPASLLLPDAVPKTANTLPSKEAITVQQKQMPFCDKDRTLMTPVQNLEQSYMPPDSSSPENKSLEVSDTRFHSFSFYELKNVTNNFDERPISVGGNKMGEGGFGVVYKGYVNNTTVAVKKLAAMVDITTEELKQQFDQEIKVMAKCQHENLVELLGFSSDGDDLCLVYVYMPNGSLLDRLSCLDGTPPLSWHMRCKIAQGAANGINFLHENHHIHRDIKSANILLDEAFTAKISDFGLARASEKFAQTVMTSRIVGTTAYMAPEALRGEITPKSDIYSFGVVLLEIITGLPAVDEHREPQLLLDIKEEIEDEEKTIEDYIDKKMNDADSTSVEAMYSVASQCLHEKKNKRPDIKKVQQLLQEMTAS
# Test: IRAK4 ADP-Glo Assay
# Experimental: The ADP-Glo reagents were thawed at ambient temperature. The Kinase Detection Reagent was prepared by mixing kinase detection buffer with the lyophilized kinase detection substrate, and set aside.A stock volume of 5 Reaction Kinase Buffer was made with a final concentration of 100 mM MgCl2, 200 mM Tris-HCl, and 0.5 mg/ml of BSA, in distilled H2O with a final pH7.4. A 2 working stock volume of Reaction Kinase Buffer was made containing a final concentration of 100 μM DTT.The components of IRAK4 Enzyme were thawed on ice. Diluted IRAK4 in 1 Kinase Reaction Buffer (diluted from 2 buffer) was prepared at 5.0 ng/μl. […] Then diluted 1:5 in 2 Reaction Buffer in a 96 well plate. 1.0 μl was transferred to a 384 well plate in duplicate. […] 1 μl of 1 mg/ml stock solution of MBP substrate was added NOTE: MBP can be combined with ATP mix with equal volume and then added at 2 μl/well. Final reaction volume was 5 μl.The plate was centrifuged and the reaction mixture was incubated at room temperature for 60 minutes or at 30 C. for 30 minutes.The reaction was terminated and the remaining ATP was depleted by adding 5 μl of ADP-Glo Reagent. The 384-well plate was centrifuged and then the reaction mixture was incubated for another 40 minutes at ambient temperature.
row,Compound,IC50
1,"CC(C)Oc1cc2c(OC[C@@H]3CC(F)(F)C(=O)N3)ncc(C#CC3(O)CCN(C(=O)OC(C)(C)C)CC3)c2cc1C(N)=O [US20230391748, Compound I-52]",18.3 nM
2,"CC(C)Oc1cc2c(O[C@@H]3CCCNC3)ncc(C#CC3(O)CCCC3)c2cc1C(N)=O [US20230391748, Compound I-85]",35 nM

# Reference: BindingDB's records for patent US20230391748 (Rigel Pharmaceuticals, 2023)
